These results are taken from paper PMC11356571, “The Comparative Metabolism of a Novel Hepatocellular Carcinoma Therapeutic Agent, 2,3-Diamino-N-(4-(benzo[d]thiazol-2-yl)phenyl)propanamide, in Human and Animal Hepatocytes” (Metabolites, 2024).

For data set [1], the system named is NAT2 in human liver cytosol. In words: Human liver cytosol incubation with NAT2 inhibitor 1-aminobenzotriazole. Particulars: 30 min at 37 °C, M1 1 μM. The data set is classed as in vitro ADME. As for the experimental part: For the chemical inhibition assay, human liver cytosol was prepared in 0.05 M potassium phosphate buffer at a concentration of 1 mg/mL prior to use. A 1 μL of M1 (final concentration: 1 μM) solution was spiked in 223 μL of human liver cytosol preparations. One microliter each of caffeic acid and 1-aminobenzotriazole were added and incubated as NAT1 and NAT2 inhibitors, respectively. The final concentrations of the NAT inhibitors were 0, 100, and 1000 μM in each incubate. After 5 min of pre-warming of the incubates at 37 °C, the metabolic reaction was initiated by adding 25 μL of acetyl-CoA regenerating system to the incubates. The samples were incubated in triplicate for 0 min or 30 min at 37 °C. The reaction was stopped by adding 250 μL of ice-cold acetonitrile containing the IS (camptothecin, 500 ng/mL) and vortex-mixing. Following centrifugation at 13,000 rpm for 5 min at 4 °C, a 2 μL aliquot of the supernatant was injected into the LC-MS/MS system. The percentage of remaining M1 and the formation of M2 were evaluated to determine the involvement of the NAT isozyme in N-acetylation of M1.
For enzyme characterization, an Agilent 6460 triple quadrupole mass spectrometer coupled with a 1260 HPLC system (Agilent Technologies, Santa Clara, CA, USA) and a Kinetex Halo® C18 column (2.7 μm, 2.1 × 50 mm, Advanced Material Technology, Wilmington, DE, USA) were used for chromatographic separation. The mobile phases comprised 0.1% (v/v) formic acid in water (mobile phase A) and 0.1% formic acid (v/v) in acetonitrile (mobile phase B). The mobile phase flowed at a rate of 0.3 mL/min, and the gradient elution program proceeded as follows: starting with 10% B for 0.5 min, a linear increase to 90% B for 0.2 min, maintaining 90% B for 1.5 min, and then returning to initial conditions for 0.2 min. Subsequently, the column was reconditioned using 10% B for 2.6 min. The column and auto-sampler were maintained at 40 °C and 4 °C, respectively. ETN101, M1, and M2 were detected via MRM using ESI in the positive mode. […]

Data set [2] is described as follows: Metabolic stability in monkey hepatocytes. The data set is classed as in vitro ADME. The settings on record: cryopreserved hepatocytes. Here is the method: Cryopreserved hepatocytes were carefully thawed in a 37 °C water bath for approximately 1 min, and transferred to a tube containing pre-warmed thawing medium. The supernatants were removed and the pellets were resuspended in KHB at a final cell density of 1 × 10^6 cells/mL, based on hemocytometer counting using trypan blue exclusion. A ETN101 solution was prepared by dissolving ETN101 in water at 4 mM and diluted by KHB at the concentration of 4 μM of ETN101. Sixty microliters each of hepatocyte suspensions and 4 μM of ETN101 were added in a 96-well plate and incubated for 0, 5, 15, 30, and 45 min at 37 °C in a CO2 incubator. All incubations were conducted in triplicates. Reactions were terminated by the addition of 120 μL of ice-cold acetonitrile and followed by vortex mixing. After centrifugation at 13,000 rpm for 8 min at 4 °C, 5 μL of internal standard (IS, camptothecin in acetonitrile at 780 ng/mL) was added to 60 μL of supernatant. A 2 μL aliquot was injected into the LC-MS/MS system. The reliability of the analysis was confirmed by incorporating three different levels of quality control samples at the beginning and end of each analytical batch. The disappearance rate (k) of ETN101 was calculated by determined peak area ratio of ETN101 to IS over incubation period. Subsequently, half-life (t1/2), intrinsic clearance (Clint), and intrinsic hepatic clearance (Clint,hep) of ETN101 in human and animal hepatocytes were calculated using the following equation [34]: t1/2(min)=ln2/−k(elimination slope) ClintμL/min/10^6 cells=ln2/t1/2×μL incubation/hepatocytes (10^6 cells) Clint,hepmL/min/kg=Clint/1000×A×10^6 cells/g liver×B g liver/kg body weight […]
For the metabolic stability assay, an LC-MS/MS system was employed, consisting of an Agilent 1260 series HPLC system (Agilent Technologies Inc., Santa Clara, CA, USA) coupled to an API 4000 mass spectrometer (AB SCIEX, Concord, Vaughan, ON, Canada) equipped with a turbo electrospray interface. […] ETN101 and IS were detected using multiple reaction monitoring (MRM) mode under positive electrospray ionization (ESI). […]

Regarding `Nc1ccc(-c2nc3ccccc3s2)cc1` [M1, 2-(4-aminophenyl)benzothiazole], the “Percentage remaining of M1” value in data set [1] (1-aminobenzotriazole 0 μM) came out at 86.7%; in data set [1] (1-aminobenzotriazole 100 μM) it was 89.4%; in data set [1] (1-aminobenzotriazole 1000 μM), 90.9%.
In data set [2] (45 min incubation at 37 °C), `NCC(N)C(=O)Nc1ccc(-c2nc3ccccc3s2)cc1` (stereo not drawn) [ETN101, 2,3-diamino-N-(4-(benzo[d]thiazol-2-yl)phenyl)propanamide] registered a half-life at 2 µM of 1.22 h and a hepatocyte CLint at 2 µM of 19 µL/min/1e6 cells. In addition, the intrinsic metabolic clearance (CLint scaled) at 2 µM in data set [2] (scaled from Clint) was determined as 45.7 mL/min/kg.

As usually defined, the half-life is the time in which the quantity being followed falls by half. One may read the hepatocyte CLint as a measure of how fast metabolising enzymes remove a compound, apart from limits set by blood flow. Broadly, the CLint scaled is a measure of how fast metabolising enzymes remove a compound, apart from limits set by blood flow.
